Measurements published in patent US12419931B2, “Anti-cancer composition” (ACUPHARM INTERNATIONAL PROPRIETARY LIMITED, priority 2020, dated 2025).

Test system: cultured tissue from needle biopsy, Breast DCIS papillary neoplasm
Assay: dose response study with cumulative cell death on cultured patient biopsy tissue (patient 19055)
Assay type: cell-based, human
Settings: in vitro cultured biopsy sample, patient 19055, Breast DCIS papillary neoplasm
Method: Comparative studies were performed using curcumin extract as described above (referred to as ACPJL 08), Sutherlandia leaf extract in water (referred to as ACPJL 35), Sutherlandia leaf extract in 50% ethanol and water solution (referred to as ACPJL 28), Sutherlandia leaf extract in 90% ethanol and water solution (referred to as ACPJL 07) and a combinatorial formulation using the curcumin extract and Sutherlandia leaf extract in water and alcohol according to this invention (referred to as ACPJL 20). These extracts were compared to a number of known botanical isolates with anti-cancer activity, as well as a number of known anti-cancer drugs, using a dose response design with cumulative cell death as the dependent variable. These studies were conducted on in vitro samples of cultured tissue, taken as biopsy samples from patients as part of a standard culture and testing process done in order to optimise treatment.
A representative sample of such a study is provided herein below.
Summary of Study of Patient with Assigned Number 19055
Patient from whom sample was obtained was a person presenting with a diagnosis of Breast DCIS papillary neoplasm. The sample was obtained via needle biopsy, before being cultured.

Compound | overall assessment in standard culture and testing process
CC(=O)O[C@H]1C(=O)[C@@]2(C)[C@H]([C@H](OC(=O)c3ccccc3)[C@]3(O)C[C@H](OC(=O)[C@H](O)[C@@H](NC(=O)c4ccccc4)c4ccccc4)C(C)=C1C3(C)C)[C@]1(OC(C)=O)CO[C@@H]1C[C@@H]2O [Paclitaxel] | potential benefit
CC[C@]1(O)C[C@H]2CN(CCc3c([nH]c4ccccc34)[C@@](C(=O)OC)(c3cc4c(cc3OC)N(C=O)[C@H]3[C@@](O)(C(=O)OC)[C@H](OC(C)=O)[C@]5(CC)C=CCN6CC[C@]43[C@@H]65)C2)C1 [Vincristine] | potential benefit
CC(=O)O[C@@]12CO[C@@H]1C[C@H](O)[C@@]1(C)C(=O)[C@H](O)C3=C(C)[C@@H](OC(=O)[C@H](O)[C@@H](NC(=O)OC(C)(C)C)c4ccccc4)C[C@@](O)([C@@H](OC(=O)c4ccccc4)[C@H]21)C3(C)C [Docetaxel] | potential benefit
O=C1c2c(O)ccc(O)c2C(=O)c2c(NCCNCCO)ccc(NCCNCCO)c21 [Mitoxantrone] | potential benefit
COC(=O)c1ccc2c(c1)NC(=O)/C2=C(\Nc1ccc(N(C)C(=O)CN2CCN(C)CC2)cc1)c1ccccc1 [Nintedanib] | good efficacy and a positive dose response curve
CCC1=C[C@@H]2CN(C1)Cc1c([nH]c3ccccc13)[C@@](C(=O)OC)(c1cc3c(cc1OC)N(C)[C@H]1[C@@](O)(C(=O)OC)[C@H](OC(C)=O)[C@]4(CC)C=CCN5CC[C@]31[C@@H]54)C2 [Vinorelbine] | potential benefit
Nc1nc(Cl)nc2c1ncn2[C@@H]1O[C@H](CO)[C@@H](O)[C@@H]1F [Clofarabine] | potential benefit
COc1cc2ncnc(Nc3ccc(F)c(Cl)c3)c2cc1OCCCN1CCOCC1 [Gefitinib] | potential benefit
O=C(CCCCCCC(=O)Nc1ccccc1)NO [Vorinostat] | potential benefit
COc1cc2c(Oc3ccc4[nH]c(C)cc4c3F)ncnc2cc1OCCCN1CCCC1 [Cediranib] | potential benefit
